{
  "source": "paper PMC7596534",
  "about": "“Bacterial inducible expression of plant cell wall-binding protein YesO through conflict between Glycine max and saprophytic Bacillus subtilis” (Scientific Reports, 2020)",
  "target": "T1, YesO (Bacillus subtilis, UniProt O31518)",
  "T1 construct": "primer-encoded N-terminus MTLRIAWWG, native stop codon, no tag apparent",
  "T1 sequence (O31518 34-427)": "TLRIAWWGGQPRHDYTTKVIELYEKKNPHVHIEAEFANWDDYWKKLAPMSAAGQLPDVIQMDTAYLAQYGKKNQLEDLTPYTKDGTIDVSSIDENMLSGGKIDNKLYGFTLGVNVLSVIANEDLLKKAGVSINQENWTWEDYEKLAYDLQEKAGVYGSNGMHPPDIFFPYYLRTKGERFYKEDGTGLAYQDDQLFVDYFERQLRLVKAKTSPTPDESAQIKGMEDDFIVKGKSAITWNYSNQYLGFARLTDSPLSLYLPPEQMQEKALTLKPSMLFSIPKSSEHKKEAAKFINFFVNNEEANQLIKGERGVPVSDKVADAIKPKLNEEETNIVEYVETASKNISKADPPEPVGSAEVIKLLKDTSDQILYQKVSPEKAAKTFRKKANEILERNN",
  "test": "X-ray crystallography of the complex, […] Å",
  "type": "binding",
  "settings": "crystallised with 1 mM oligo-RG-I (mostly disaccharide, trisaccharide seen in density); Tris-HCl pH 8.5, 20 C; cleft between N- and C-domains",
  "data": [
    {"compound": "C[C@@H]1OC(O)[C@H](O[C@H]2OC(C(=O)O)=C[C@H](O)[C@H]2O)[C@H](O)[C@H]1O[C@@H]1O[C@H](CO)[C@H](O)[C@H](O)[C@H]1O", "note": "(stereo partly shown) [ΔGalUA-Rha-Gal]", "values": [
      {"measurement": "X-ray crystallography of the complex, 1.58 Å", "result": "X-ray crystallography of YesO/oligo-RG-I indicated an interaction between YesO and the trisaccharide, ΔGalUA-Rha-Gal"}
    ]}
  ]
}
